Test results taken from article PMC3652819, “A Cocoa Peptide Protects Caenorhabditis elegans from Oxidative Stress and β-Amyloid Peptide Toxicity” (PLoS ONE, 2013).
pIC50: −log10 of the molar value. Residues, ends and D or L forms follow the SMILES beside them. No end group written: not given here. *: point of attachment. Cbz = O=C(OCc1ccccc1)*

Key:
[1] = system: C. elegans strain CL4176 (Aβ1–42); assay: body paralysis assay in transgenic C. elegans CL4176 expressing human Aβ1-42; assay type: in vivo, Caenorhabditis elegans; conditions: for Mid Paralysis (h), time when 50% of worms were paralyzed / % of worms non paralyzed at onset of paralysis / Onset Paralysis, time: peptides 1 µg/mL, ZPP 1 µM, “Barquillo” 10 µL/mL, fractions 10 µL/mL; for Mid Paralysis (h), time when 50% of worms were paralyzed: NGM 47 h; for % of worms non paralyzed at onset of paralysis: at the onset time, NGM 85.8%; for Onset Paralysis, time: time after Aβ42 induction, NGM 41 h; for effect on body paralysis (in words): compared with NGM controls
Experimental: Mutant strain GR1321 (tph-1(mg280)) was used in body fat reduction experiments. All the strains were obtained from the Caenorhabditis Genetics Center (University of Minnesota). Caenorhabditis elegans N2 and tph-1 were routinely propagated on Nematode Growth Medium (NGM) plates with Escherichia coli strain OP50 as a food source at 20°C, while CL4176 was maintained at 16°C. Worms were synchronized by isolating eggs from gravid adults at 20°C (N2 and tph-1) or 16°C (CL4176), and eggs were hatched overnight in NGM plates. In the experiments, the worms were fed with the different compounds from egg through to adult stages, and transferred to new plates every two days. […] ZPP (1 µM) was used as an internal positive control. Transgene expression was induced by up-shifting the temperature from 16°C to 25°C, starting 24 h after egg lying and maintained for 24 h. Then worms were incubated at 20°C until all the worms in the experiment became paralyzed. […] Paralysis in induced worms was compared with non-induced worms (maintained at 16°C until the end of the paralysis assay). Experiments were carried out in triplicate.

[2] = system: C. elegans wild-type strain N2; assay: survival of wild-type C. elegans N2 after H2O2-induced oxidative stress; assay type: in vivo, Caenorhabditis elegans; conditions: compared with NGM
Experimental: Experiments of oxidative stress, body fat reduction and microarrays were carried out with the wild-type strain N2 (Bristol). Paralysis assays were performed with the transgenic strain CL4176 (smg-1^ts [pAF29(myo-3/Aβ1–42/let UTR)+pRF4(rol-6(su10069))]). Paralysis is induced in strain CL4176 by expression of a muscle-specific Aβ1–42, which depends on up-shifting temperature from 16 to 25°C [21], [22]. Mutant strain GR1321 (tph-1(mg280)) was used in body fat reduction experiments. All the strains were obtained from the Caenorhabditis Genetics Center (University of Minnesota).
Caenorhabditis elegans N2 and tph-1 were routinely propagated on Nematode Growth Medium (NGM) plates with Escherichia coli strain OP50 as a food source at 20°C, while CL4176 was maintained at 16°C. Worms were synchronized by isolating eggs from gravid adults at 20°C (N2 and tph-1) or 16°C (CL4176), and eggs were hatched overnight in NGM plates. In the experiments, the worms were fed with the different compounds from egg through to adult stages, and transferred to new plates every two days. […]
Viability of C. elegans was assessed after oxidative stress and differences between nematodes cultured in control and treatment conditions were evaluated by means of one-way analysis of variance (ANOVA) using Statgraphics plus (version 5.1) software (Manugistics, Rockville, MD).

[3] = system: C. elegans strain CL4176 (Aβ1–42); conditions: ref [36], [37]; cited from earlier work
Source text: (§1) This could be explained by the release of bioactive peptides from the protein fraction of the by-product.

Aβ42 = conditions: C. elegans; ref [36], [37]; cited from earlier work
Source text: as §1

[4] = target: T1, prolyl endopeptidase (PEP) (Elizabethkingia meningoseptica, UniProt P27028); assay: biochemical
T1 construct: purchased Seikagaku Corporation, Tokyo, Japan
T1 sequence (P27028 21-705): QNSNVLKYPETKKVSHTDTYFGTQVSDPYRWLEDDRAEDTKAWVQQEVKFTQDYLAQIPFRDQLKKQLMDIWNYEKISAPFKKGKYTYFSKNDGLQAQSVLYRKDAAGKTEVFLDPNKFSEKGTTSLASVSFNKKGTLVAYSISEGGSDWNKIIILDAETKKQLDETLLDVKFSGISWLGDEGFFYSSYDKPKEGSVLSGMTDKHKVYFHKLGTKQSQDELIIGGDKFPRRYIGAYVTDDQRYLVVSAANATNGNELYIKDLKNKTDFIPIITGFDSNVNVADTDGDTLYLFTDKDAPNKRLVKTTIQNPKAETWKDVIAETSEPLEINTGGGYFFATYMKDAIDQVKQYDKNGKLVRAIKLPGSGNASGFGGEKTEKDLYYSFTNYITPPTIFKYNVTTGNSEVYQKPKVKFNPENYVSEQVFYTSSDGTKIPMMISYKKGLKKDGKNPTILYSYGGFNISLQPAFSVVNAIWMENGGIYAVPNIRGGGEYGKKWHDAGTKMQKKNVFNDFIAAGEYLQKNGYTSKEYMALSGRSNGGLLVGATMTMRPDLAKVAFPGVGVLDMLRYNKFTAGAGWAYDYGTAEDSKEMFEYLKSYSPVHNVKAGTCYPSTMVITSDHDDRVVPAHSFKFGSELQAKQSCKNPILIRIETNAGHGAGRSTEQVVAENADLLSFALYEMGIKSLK
Experimental: Prolyl endopeptidase (PEP) activity was determined using a previously described method. Reaction was performed by addition of 0.1 U/ml of PEP (Seikagaku Corporation, Tokyo, Japan) to a 100 mM phosphate buffer pH 7 containing 2 mM of Z-Gly-Pro-p-nitroaniline (Sigma, Madrid, Spain). Samples were incubated for 20 min at 30°C and then the reaction was stopped by adding a volume of 10.5% Triton X-100 in 1 M sodium acetate buffer pH 4. The amount of ρ-nitroaniline released was quantified by spectrophotometry at 410 nm. The inhibitory activity of PEP was determined by adding 100 µl of each sample obtained during the purification process to the enzymatic reaction. Z-Prolyl-Prolinal (ZPP) (0.000426 ppm, Biomol, Plymouth Meeting, USA) was used as positive control of inhibition.

Molecule: O=C[C@@H]1CCCN1C(=O)[C@@H]1CCCN1C(=O)OCc1ccccc1 [ZPP, Z-Prolyl-Prolinal, reference compound] (Cbz-Pro-Pro-aldehyde)
- Mid Paralysis (h), time when 50% of worms were paralyzed [1]: >49 h
- % of worms non paralyzed at onset of paralysis [1]: 96.7%
- Onset Paralysis, time [1]: 41 h

Molecule: GVKGEPGPNTL [11R, GVKGEPGPNTL]
- effect on worm survival after oxidative stress (in words) [2]: significant protection upon oxidative stress
- effect on body paralysis (in words) [1]: ability to ameliorate Aβ-induced paralysis
- Mid Paralysis (h), time when 50% of worms were paralyzed [1]: 49 h
- % of worms non paralyzed at onset of paralysis [1]: 89.9%
- Onset Paralysis, time [1]: 41 h

Molecule: COC(=O)[C@H]1[C@H]2C[C@@H]3c4[nH]c5cc(OC)ccc5c4CCN3C[C@H]2C[C@@H](OC(=O)c2cc(OC)c(OC)c(OC)c2)[C@@H]1OC [reserpine]
- effect on paralysis (in words) [3]: effect on delaying paralysis
- effect on Aβ peptide expression levels (in words) (Aβ42): no effects were observed in Aβ peptide expression levels

Molecule: TDGVKGEPGPNTL [13R, synthesized peptide from the 21 kDa seed protein of Theobroma cacao]
- effect on worm survival after oxidative stress (in words) [2]: did not produce a significant effect on worm survival rates
- inhibitory activity (IC50) against PEP enzyme ([4]; synthetic peptides, 0.1 U/ml PEP, 2 mM Z-Gly-Pro-p-nitroaniline, pH 7, 20 min at 30°C, 410 nm): > 1480 µg/mL
- effect on body paralysis (in words) [1]: ability to ameliorate Aβ-induced paralysis
- Mid Paralysis (h), time when 50% of worms were paralyzed [1]: 49 h
- % of worms non paralyzed at onset of paralysis [1]: 83.4%
- Onset Paralysis, time [1]: 41 h

Molecule: DNYDNSAGKWWVT [13L, DNYDNSAGKWWVT]
- pIC50 [4]: 3.91

Molecule: NYDNSAGKW [9L, NYDNSAGKW]
- pIC50 [4]: 3.32
